What was measured:
Format in all cases: functional
Settings in all cases: read-out: GI
[1] = tested on: HT-29; test: Growth inhibition of human HT-29 cells at 10 uM incubated for 48 hrs by sulforhodamine B assay relative to control
[2] = tested on: HL-60(TB); test: Growth inhibition of human HL-60(TB) cells at 10 uM incubated for 48 hrs by sulforhodamine B assay relative to control
[3] = tested on: RPMI-8226; test: Growth inhibition of human RPMI-8226 cells at 10 uM incubated for 48 hrs by sulforhodamine B assay relative to control
[4] = tested on: SF-268; test: Growth inhibition of human SF-268 cells at 10 uM incubated for 48 hrs by sulforhodamine B assay relative to control
[5] = tested on: A549; test: Growth inhibition of human A549/ATCC cells at 10 uM incubated for 48 hrs by sulforhodamine B assay relative to control
[6] = tested on: TK-10; test: Growth inhibition of human TK-10 cells at 10 uM incubated for 48 hrs by sulforhodamine B assay relative to control
[7] = tested on: HOP-62; test: Growth inhibition of human HOP-62 cells at 10 uM incubated for 48 hrs by sulforhodamine B assay relative to control
[8] = tested on: HCT-15; test: Growth inhibition of human HCT-15 cells at 10 uM incubated for 48 hrs by sulforhodamine B assay relative to control
[9] = tested on: SNB-19; test: Growth inhibition of human SNB-19 cells at 10 uM incubated for 48 hrs by sulforhodamine B assay relative to control
[10] = tested on: SK-MEL-28; test: Growth inhibition of human SK-MEL-28 cells at 10 uM incubated for 48 hrs by sulforhodamine B assay relative to control
[11] = tested on: OVCAR-4; test: Growth inhibition of human OVCAR-4 cells at 10 uM incubated for 48 hrs by sulforhodamine B assay relative to control
[12] = tested on: LOX IMVI; test: Growth inhibition of human LOX IMVI cells at 10 uM incubated for 48 hrs by sulforhodamine B assay relative to control
[13] = tested on: UACC-257; test: Growth inhibition of human UACC-257 cells at 10 uM incubated for 48 hrs by sulforhodamine B assay relative to control
[14] = tested on: ACHN; test: Growth inhibition of human ACHN cells at 10 uM incubated for 48 hrs by sulforhodamine B assay relative to control
[15] = tested on: NCI-H23; test: Growth inhibition of human NCI-H23 cells at 10 uM incubated for 48 hrs by sulforhodamine B assay relative to control
[16] = tested on: U-251; test: Growth inhibition of human U-251 cells at 10 uM incubated for 48 hrs by sulforhodamine B assay relative to control
[17] = tested on: UO-31; test: Growth inhibition of human UO-31 cells at 10 uM incubated for 48 hrs by sulforhodamine B assay relative to control
[18] = tested on: MDA-MB-231; test: Growth inhibition of human MDA-MB-231 cells at 10 uM incubated for 48 hrs by sulforhodamine B assay relative to control
[19] = tested on: MOLT-4; test: Growth inhibition of human MOLT-4 cells at 10 uM incubated for 48 hrs by sulforhodamine B assay relative to control
[20] = tested on: CCRF-CEM; test: Growth inhibition of human CCRF-CEM cells at 10 uM incubated for 48 hrs by sulforhodamine B assay relative to control
[21] = tested on: HCC 2998; test: Growth inhibition of human HCC 2998 cells at 10 uM incubated for 48 hrs by sulforhodamine B assay relative to control
[22] = tested on: KM12; test: Growth inhibition of human KM12 cells at 10 uM incubated for 48 hrs by sulforhodamine B assay relative to control
[23] = tested on: OVCAR-8; test: Growth inhibition of human OVCAR-8 cells at 10 uM incubated for 48 hrs by sulforhodamine B assay relative to control
[24] = tested on: DU-145; test: Growth inhibition of human DU-145 cells at 10 uM incubated for 48 hrs by sulforhodamine B assay relative to control
[25] = tested on: MDA-MB-468; test: Growth inhibition of human MDA-MB-468 cells at 10 uM incubated for 48 hrs by sulforhodamine B assay relative to control
[26] = tested on: RXF 393; test: Growth inhibition of human RXF 393 cells at 10 uM incubated for 48 hrs by sulforhodamine B assay relative to control
[27] = tested on: NCI-H522; test: Growth inhibition of human NCI-H522 cells at 10 uM incubated for 48 hrs by sulforhodamine B assay relative to control
[28] = tested on: T47D; test: Growth inhibition of human T47D cells at 10 uM incubated for 48 hrs by sulforhodamine B assay relative to control
[29] = tested on: M14; test: Growth inhibition of human M14 cells at 10 uM incubated for 48 hrs by sulforhodamine B assay relative to control
[30] = tested on: SNB-75; test: Growth inhibition of human SNB-75 cells at 10 uM incubated for 48 hrs by sulforhodamine B assay relative to control
[31] = tested on: HCT-116; test: Growth inhibition of human HCT-116 cells at 10 uM incubated for 48 hrs by sulforhodamine B assay relative to control
[32] = tested on: SN12C; test: Growth inhibition of human SN12C cells at 10 uM incubated for 48 hrs by sulforhodamine B assay relative to control
[33] = tested on: PC-3; test: Growth inhibition of human PC-3 cells at 10 uM incubated for 48 hrs by sulforhodamine B assay relative to control
[34] = tested on: BT-549; test: Growth inhibition of human BT-549 cells at 10 uM incubated for 48 hrs by sulforhodamine B assay relative to control
[35] = tested on: SK-OV-3; test: Growth inhibition of human SK-OV-3 cells at 10 uM incubated for 48 hrs by sulforhodamine B assay relative to control
[36] = tested on: UACC-62; test: Growth inhibition of human UACC-62 cells at 10 uM incubated for 48 hrs by sulforhodamine B assay relative to control
[37] = tested on: SF-295; test: Growth inhibition of human SF-295 cells at 10 uM incubated for 48 hrs by sulforhodamine B assay relative to control
[38] = tested on: SF-539; test: Growth inhibition of human SF-539 cells at 10 uM incubated for 48 hrs by sulforhodamine B assay relative to control
[39] = tested on: SK-MEL-5; test: Growth inhibition of human SK-MEL-5 cells at 10 uM incubated for 48 hrs by sulforhodamine B assay relative to control
[40] = tested on: MDA-MB-435; test: Growth inhibition of human MDA-MB-435 cells at 10 uM incubated for 48 hrs by sulforhodamine B assay relative to control
[41] = tested on: SR; test: Growth inhibition of human SR cells at 10 uM incubated for 48 hrs by sulforhodamine B assay relative to control
[42] = tested on: K562; test: Growth inhibition of human K562 cells at 10 uM incubated for 48 hrs by sulforhodamine B assay relative to control
[43] = tested on: MCF7; test: Growth inhibition of human MCF7 cells at 10 uM incubated for 48 hrs by sulforhodamine B assay relative to control
[44] = tested on: HOP-92; test: Growth inhibition of human HOP-92 cells at 10 uM incubated for 48 hrs by sulforhodamine B assay relative to control

## O=C(Cn1ccc2ccccc21)Nc1ccc(-c2nc3ccccc3s2)cc1
[1]
  inhibition of growth at 10 µM: -14.7%
[2]
  inhibition of growth at 10 µM: 0.1%
[3]
  inhibition of growth at 10 µM: 0%
[4]
  inhibition of growth at 10 µM: 3.37%
[5]
  inhibition of growth at 10 µM: 1.71%
[6]
  inhibition of growth at 10 µM: -3.65%
[7]
  inhibition of growth at 10 µM: -3.42%
[8]
  inhibition of growth at 10 µM: -10.2%
[9]
  inhibition of growth at 10 µM: 1.41%
[10]
  inhibition of growth at 10 µM: -13.7%
[11]
  inhibition of growth at 10 µM: -2.92%
[12]
  inhibition of growth at 10 µM: 8.68%
[13]
  inhibition of growth at 10 µM: -0.08%
[14]
  inhibition of growth at 10 µM: -10.9%
[15]
  inhibition of growth at 10 µM: 5.98%
[16]
  inhibition of growth at 10 µM: 2.41%
[17]
  inhibition of growth at 10 µM: 7.58%
[18]
  inhibition of growth at 10 µM: -7.77%
[19]
  inhibition of growth at 10 µM: 5.48%
[20]
  inhibition of growth at 10 µM: 2.97%
[21]
  inhibition of growth at 10 µM: -3.48%
[22]
  inhibition of growth at 10 µM: -6.39%
[23]
  inhibition of growth at 10 µM: -4.73%
[24]
  inhibition of growth at 10 µM: -0.67%
[25]
  inhibition of growth at 10 µM: 150%
[26]
  inhibition of growth at 10 µM: -12.6%
[27]
  inhibition of growth at 10 µM: -1.58%
[28]
  inhibition of growth at 10 µM: 9.38%
[29]
  inhibition of growth at 10 µM: -8.41%
[30]
  inhibition of growth at 10 µM: 6.21%
[31]
  inhibition of growth at 10 µM: -1.55%
[32]
  inhibition of growth at 10 µM: -1.09%
[33]
  inhibition of growth at 10 µM: 2.02%
[34]
  inhibition of growth at 10 µM: -5.34%
[35]
  inhibition of growth at 10 µM: -1.65%
[36]
  inhibition of growth at 10 µM: 5.01%
[37]
  inhibition of growth at 10 µM: -3.08%
[38]
  inhibition of growth at 10 µM: -2.36%
[39]
  inhibition of growth at 10 µM: 1.44%
[40]
  inhibition of growth at 10 µM: -3.52%
[41]
  inhibition of growth at 10 µM: 4.51%
[42]
  inhibition of growth at 10 µM: -3.37%
[43]
  inhibition of growth at 10 µM: 61.8%
[44]
  inhibition of growth at 10 µM: -4.8%

From ChEMBL document CHEMBL4765227, “Hit to lead optimization of a series of N-[4-(1,3-benzothiazol-2-yl)phenyl]acetamides as monoacylglycerol lipase inhibitors with potential anticancer activity” (Eur J Med Chem, 2016)
